Experimental findings from patent EP1117659B1, “SUBSTITUTED 3-CYANOQUINOLINES AS PROTEIN TYROSINE KINASES INHIBITORS” (Wyeth Holdings Corporation, priority 1998, dated 2000) are described below.

Assay [1] deals with T1, Kinase insert Domain containing Receptor (KDR: the catalytic domain of the VEGF receptor) (Homo sapiens, UniProt P35968).
T1 construct: KDR: the catalytic domain of the VEGF receptor
Briefly: Inhibition of Kinase insert Domain containing Receptor (KDR), radioactive phosphorylation of Glu:Tyr copolymer. Format: biochemical. The following applies: IC50, substrate phosphorylation. In a few lines:
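Radiometric read-out: acid-precipitable 32P/33P from labelled ATP on an E:Y 4:1 copolymer, ATP added to start. KDR catalytic domain was incubated with compound, Mg++ and vanadate phosphatase blocker, buffered at pH 7.2; compounds may have several replicate entries.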

A further assay concerns A431. Briefly: Inhibition of Cancer Cell Growth as Measured by Cell Number (Sulforhodamine B). It counts as cell-based, Human. The following applies: Homo sapiens, A-431, 48 h, 48 hours exposure. How it is done: (§1) Human tumor cell lines were plated in 96-well plates (250 µl/well, 1-6 x 10^4 cells/ml) in RPMI 1640 medium, containing 5% FBS (Fetal Bovine Serum). […] After 48 hours exposure to test compounds, cells were fixed with trichloroacetic acid, and stained with Sulforhodamine B. After washing with trichloroacetic acid, bound dye was solubilized in 10 mM Tris base and optical density was determined using plate reader. Under conditions of the assay the optical density is proportional to the number of cells in the well. […] The test procedure is described in details by Philip Skehan et. al, J.Natl. Canc. Inst., 82, 1107-1112 (1990). […] Information about some of the cell lines used in these test procedures is available from the American Type Tissue Collection: Cell Lines and Hybridomas, 1994 Reference Guide, 8th Edition.

Another assay relates to SW620. The description is as above. Format: cell-based, Human. As to conditions: Homo sapiens, SW-620, 48 h, 48 hours exposure. How it is done:
as §1

Assay [2] concerns the target T2, epidermal growth factor receptor kinase (EGF-R Kinase, recombinant enzyme; His-tagged cytoplasmic domain of EGFR) (Homo sapiens, UniProt P00533).
T2 construct: EGFR cDNA encoding amino acids 645 - 1186 preceded by Met-Ala-(His)6; Met-Ala-(His)6 (N); made in house; host or cells: Sf9 insect cells, recombinant baculovirus vHcEGFR52
Briefly: Inhibition of Epidermal Growth Factor Receptor Kinase (EGF-R) using recombinant enzyme, RR-SRC peptide phosphorylation, 33P-ATP. It counts as biochemical. In outline:
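His-tagged EGFR cytoplasmic domain (aa 645–1186, baculovirus/Sf9) preincubated with compound 10 min on ice, then RR-SRC peptide (80 µM final) and γ-33P-ATP added. Reaction run 90 min at room temperature; peptide-bound 33P counted on P81 filters, background-corrected. IC50 from dose-response of ≥3 concentrations.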

The target in assay [3] is Epithelial Cell Kinase (ECK) (Homo sapiens, UniProt P29317). Briefly: Inhibition of Epithelial Cell Kinase (ECK), immobilized biotinylated peptide, HRP anti-phosphotyrosine readout. It counts as biochemical. As to conditions: IC50, substrate phosphorylation. In a few lines:
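Biotinylated peptide substrate immobilized on neutravidin plates, reacted with ECK, test drug, Mg++ and sodium vanadate at pH 7.2; ATP added to start phosphorylation. After washing, phosphopeptide detected with HRP-conjugated anti-phosphotyrosine antibody, HRP activity reflecting substrate phosphorylation. Repeat entries are separate tests of the same compound.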

Another assay has as its system A2780. Briefly: Inhibition of Cancer Cell Growth as Measured by Cell Number (Sulforhodamine B). Format: cell-based. As to conditions: Homo sapiens, 48 hours exposure. The method, then:
as §1

In another assay the test system is 3T3/c-erbb2. Described as above. It counts as cell-based. As to conditions: 48 hours exposure. The method, then: as §1
In the next assay the test system is 3T3. The description is as above. Format: cell-based. As to conditions: Mus musculus, NIH3T3; 48 hours exposure. How it is done:
as §1

The next assay deals with DDP. The assay is described as above. It counts as cell-based. The following applies: Homo sapiens; 48 hours exposure. How it is done:
as §1

As a reminder, the IC50 is the concentration at which inhibition is half-maximal.

≈ marks a conversion by molar mass, not a printed value. Some results are limits rather than exact numbers.

T2 sequence (P00533 669-1210): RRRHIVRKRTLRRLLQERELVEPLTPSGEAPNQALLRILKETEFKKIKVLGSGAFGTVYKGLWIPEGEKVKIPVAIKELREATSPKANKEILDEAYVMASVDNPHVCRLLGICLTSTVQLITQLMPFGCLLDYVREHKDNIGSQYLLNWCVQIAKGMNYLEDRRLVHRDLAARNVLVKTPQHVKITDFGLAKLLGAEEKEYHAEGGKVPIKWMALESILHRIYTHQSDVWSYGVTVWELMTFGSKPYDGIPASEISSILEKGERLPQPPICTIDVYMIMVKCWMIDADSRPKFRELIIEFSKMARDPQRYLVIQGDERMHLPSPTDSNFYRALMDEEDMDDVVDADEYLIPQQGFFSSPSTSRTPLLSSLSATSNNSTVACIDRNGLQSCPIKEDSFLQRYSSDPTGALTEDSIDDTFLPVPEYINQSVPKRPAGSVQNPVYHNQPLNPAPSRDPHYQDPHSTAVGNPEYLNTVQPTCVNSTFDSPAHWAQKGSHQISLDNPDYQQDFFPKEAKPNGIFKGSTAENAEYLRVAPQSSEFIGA
Epithelial Cell Kinase (ECK), sequence (P29317 24-976, species assumed): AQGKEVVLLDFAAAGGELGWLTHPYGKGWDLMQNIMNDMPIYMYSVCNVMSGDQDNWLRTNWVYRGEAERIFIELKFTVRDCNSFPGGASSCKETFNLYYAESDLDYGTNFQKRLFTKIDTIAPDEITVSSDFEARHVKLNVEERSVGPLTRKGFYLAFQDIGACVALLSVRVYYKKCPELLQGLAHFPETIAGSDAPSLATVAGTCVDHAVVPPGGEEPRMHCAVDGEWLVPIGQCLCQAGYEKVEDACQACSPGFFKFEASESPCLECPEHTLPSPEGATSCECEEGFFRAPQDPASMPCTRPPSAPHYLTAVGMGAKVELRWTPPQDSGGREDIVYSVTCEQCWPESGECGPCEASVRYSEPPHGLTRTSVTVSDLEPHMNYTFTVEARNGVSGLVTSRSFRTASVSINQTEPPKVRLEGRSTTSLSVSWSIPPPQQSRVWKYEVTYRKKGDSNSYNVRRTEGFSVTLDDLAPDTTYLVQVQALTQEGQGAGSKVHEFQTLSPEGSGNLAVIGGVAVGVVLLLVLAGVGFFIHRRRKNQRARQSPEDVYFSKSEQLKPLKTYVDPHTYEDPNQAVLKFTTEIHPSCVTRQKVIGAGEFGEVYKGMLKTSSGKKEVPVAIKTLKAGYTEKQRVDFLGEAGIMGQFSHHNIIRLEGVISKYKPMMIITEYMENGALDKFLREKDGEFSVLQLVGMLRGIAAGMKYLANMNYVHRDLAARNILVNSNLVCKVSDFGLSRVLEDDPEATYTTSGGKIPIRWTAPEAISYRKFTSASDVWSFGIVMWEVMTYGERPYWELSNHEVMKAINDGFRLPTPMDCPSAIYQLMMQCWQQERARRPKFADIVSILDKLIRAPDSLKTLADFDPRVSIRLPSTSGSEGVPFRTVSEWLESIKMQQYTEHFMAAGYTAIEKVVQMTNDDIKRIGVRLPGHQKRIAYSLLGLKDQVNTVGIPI
T1 sequence (P35968 834-1162 limits assumed): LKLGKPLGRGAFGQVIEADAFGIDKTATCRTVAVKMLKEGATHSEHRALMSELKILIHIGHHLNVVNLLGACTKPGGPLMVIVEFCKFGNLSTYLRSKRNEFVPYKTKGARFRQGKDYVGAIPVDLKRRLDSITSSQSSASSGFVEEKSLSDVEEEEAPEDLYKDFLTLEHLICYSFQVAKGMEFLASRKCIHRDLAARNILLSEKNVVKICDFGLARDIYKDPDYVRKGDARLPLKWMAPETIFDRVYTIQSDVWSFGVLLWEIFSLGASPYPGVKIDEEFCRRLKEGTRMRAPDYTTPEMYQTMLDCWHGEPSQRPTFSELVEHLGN

Regarding `CCOc1cc2ncc(C#N)c(Nc3ccc4cc[nH]c4c3)c2cc1OCC` [Example 101, 6,7-Diethoxy-4-(1H-indol-6-ylamino)-quinoline-3-carbonitrile], the half-maximal inhibitory concentration (IC50) is 5.37 µM in assay [1]; 0.216 µg/mL (≈ 0.58 µM) with A431; 0.326 µg/mL (≈ 0.875 µM) with SW620; greater than 1 µM in assay [2] (recombinant enzyme, 90 min at room temperature); greater than 53.7 µM in assay [3]; 0.231 µg/mL (≈ 0.62 µM) in the assay with A2780. Further, the IC50 in the assay on 3T3/c-erbb2 worked out at 0.933 µg/mL (≈ 2.51 µM); with 3T3 it was 1.53 µg/mL (≈ 4.11 µM); in the assay with DDP, 0.313 µg/mL (≈ 0.84 µM). Further, the inhibition at 0.5 µM in [2] (read-out: %Inh @ 0.5 µM) was determined as 27%.
